System: P12-Ichikawa
Assay: cell viability relative to DMSO control; higher = less cytotoxic
Settings: 48 h
Outline: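 NOMO1, SEM and P12-Ichikawa leukemia cells spent at least four passages adapting to each medium before use. They were seeded at 500 cells/well (NOMO1, SEM) or 1000 cells/well (P12-Ichikawa) in 5 μl in 1536-well plates and pin-dosed with library compounds in DMSO at 11 threefold steps from 47 μM down to 0.79 nM. After 48 h at 37°C, CellTiter-Glo One luminescence was read. Viability is reported as a percentage of the DMSO wells on each plate, with cell-free wells as background.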

[1] = HPLM + 10% dialyzed FBS, 0.000781 µM
[2] = HPLM + 10% dialyzed FBS, 0.00234 µM
[3] = HPLM + 10% dialyzed FBS, 0.00702 µM
[4] = HPLM + 10% dialyzed FBS, 0.0211 µM
[5] = HPLM + 10% dialyzed FBS, 0.0632 µM
[6] = HPLM + 10% dialyzed FBS, 0.19 µM
[7] = HPLM + 10% dialyzed FBS, 0.569 µM
[8] = HPLM + 10% dialyzed FBS, 1.71 µM
[9] = HPLM + 10% dialyzed FBS, 5.12 µM
[10] = HPLM + 10% dialyzed FBS, 15.4 µM
[11] = HPLM + 10% dialyzed FBS, 46.1 µM
[12] = RPMI 5 mM glucose + 10% FBS, 0.000781 µM
[13] = RPMI 5 mM glucose + 10% FBS, 0.00234 µM
[14] = RPMI 5 mM glucose + 10% FBS, 0.00702 µM
[15] = RPMI 5 mM glucose + 10% FBS, 0.0211 µM
[16] = RPMI 5 mM glucose + 10% FBS, 0.0632 µM
[17] = RPMI 5 mM glucose + 10% FBS, 0.19 µM
[18] = RPMI 5 mM glucose + 10% FBS, 0.569 µM
[19] = RPMI 5 mM glucose + 10% FBS, 1.71 µM
[20] = RPMI 5 mM glucose + 10% FBS, 5.12 µM
[21] = RPMI 5 mM glucose + 10% FBS, 15.4 µM
[22] = RPMI 5 mM glucose + 10% FBS, 46.1 µM
[23] = RPMI 5 mM glucose + 10% dialyzed FBS, 0.000781 µM
[24] = RPMI 5 mM glucose + 10% dialyzed FBS, 0.00234 µM
[25] = RPMI 5 mM glucose + 10% dialyzed FBS, 0.00702 µM
[26] = RPMI 5 mM glucose + 10% dialyzed FBS, 0.0211 µM
[27] = RPMI 5 mM glucose + 10% dialyzed FBS, 0.0632 µM
[28] = RPMI 5 mM glucose + 10% dialyzed FBS, 0.19 µM
[29] = RPMI 5 mM glucose + 10% dialyzed FBS, 0.569 µM
[30] = RPMI 5 mM glucose + 10% dialyzed FBS, 1.71 µM
[31] = RPMI 5 mM glucose + 10% dialyzed FBS, 5.12 µM
[32] = RPMI 5 mM glucose + 10% dialyzed FBS, 15.4 µM
[33] = RPMI 5 mM glucose + 10% dialyzed FBS, 46.1 µM

## C=CC(=O)Nc1cc2c(Nc3ccc(F)c(Cl)c3)ncnc2cc1C#CC(C)(C)N1CCN(C)CC1
[1]
  cell viability: 103%
[2]
  cell viability: 108%
[3]
  cell viability: 99.5%
[4]
  cell viability: 97.4%
[5]
  cell viability: 102%
[6]
  cell viability: 106%
[7]
  cell viability: 107%
[8]
  cell viability: 102%
[9]
  cell viability: 58.9%
[10]
  cell viability: 5.08%
[11]
  cell viability: 23.4%
[12]
  cell viability: 95.6%
[13]
  cell viability: 105%
[14]
  cell viability: 101%
[15]
  cell viability: 102%
[16]
  cell viability: 112%
[17]
  cell viability: 106%
[18]
  cell viability: 107%
[19]
  cell viability: 106%
[20]
  cell viability: 65.7%
[21]
  cell viability: 5.56%
[22]
  cell viability: 15.3%
[23]
  cell viability: 97.4%
[24]
  cell viability: 101%
[25]
  cell viability: 96.1%
[26]
  cell viability: 101%
[27]
  cell viability: 101%
[28]
  cell viability: 98.2%
[29]
  cell viability: 96.1%
[30]
  cell viability: 95.7%
[31]
  cell viability: 51%
[32]
  cell viability: 5.48%
[33]
  cell viability: 12.7%

## COc1cc2c(cc1OC)[C@@H]1Cc3ccc(OC)c(OC)c3CN1CC2
[1]
  cell viability: 110%
[2]
  cell viability: 114%
[3]
  cell viability: 114%
[4]
  cell viability: 113%
[5]
  cell viability: 118%
[6]
  cell viability: 117%
[7]
  cell viability: 112%
[8]
  cell viability: 106%
[9]
  cell viability: 112%
[10]
  cell viability: 99.1%
[11]
  cell viability: 94.5%
[23]
  cell viability: 111%
[24]
  cell viability: 117%
[25]
  cell viability: 119%
[26]
  cell viability: 109%
[27]
  cell viability: 110%
[28]
  cell viability: 110%
[29]
  cell viability: 124%
[30]
  cell viability: 117%
[31]
  cell viability: 109%
[32]
  cell viability: 97.2%
[33]
  cell viability: 80.3%

## Cc1c(N)nc([C@H](CC(N)=O)NC[C@@H](N)C(N)=O)nc1C(=O)N[C@H](C(=O)N[C@@H](C)[C@H](O)[C@@H](C)C(=O)N[C@@H](C(=O)NCCc1nc(-c2nc(C(=O)NCCC[S+](C)C)cs2)cs1)[C@@H](C)O)C(O[C@H]1O[C@H](CO)[C@H](O)[C@@H](O)[C@H]1O[C@H]1O[C@H](CO)[C@@H](O)[C@H](OC(N)=O)[C@@H]1O)c1c[nH]cn1 (stereo partly specified)
[1]
  cell viability: 112%
[2]
  cell viability: 114%
[3]
  cell viability: 108%
[4]
  cell viability: 108%
[5]
  cell viability: 111%
[6]
  cell viability: 120%
[7]
  cell viability: 110%
[8]
  cell viability: 96.6%
[9]
  cell viability: 78%
[10]
  cell viability: 28.3%
[11]
  cell viability: 40.9%
[12]
  cell viability: 103%
[13]
  cell viability: 102%
[14]
  cell viability: 112%
[15]
  cell viability: 114%
[16]
  cell viability: 104%
[17]
  cell viability: 109%
[18]
  cell viability: 105%
[19]
  cell viability: 67.3%
[20]
  cell viability: 51.5%
[21]
  cell viability: 21.4%
[22]
  cell viability: 37%
[23]
  cell viability: 102%
[24]
  cell viability: 103%
[25]
  cell viability: 108%
[26]
  cell viability: 103%
[27]
  cell viability: 105%
[28]
  cell viability: 109%
[29]
  cell viability: 107%
[30]
  cell viability: 91.6%
[31]
  cell viability: 82.1%
[32]
  cell viability: 37.2%
[33]
  cell viability: 44.6%

## COc1cc(NCc2ccc3nc(N)nc(N)c3c2C)cc(OC)c1OC
[1]
  cell viability: 88.8%
[2]
  cell viability: 88.8%
[3]
  cell viability: 95.8%
[4]
  cell viability: 101%
[5]
  cell viability: 99%
[6]
  cell viability: 94.4%
[7]
  cell viability: 79.4%
[8]
  cell viability: 62.2%
[9]
  cell viability: 32.9%
[10]
  cell viability: 24.7%
[11]
  cell viability: 14.7%
[12]
  cell viability: 82.4%
[13]
  cell viability: 91.7%
[14]
  cell viability: 86.1%
[15]
  cell viability: 91.5%
[16]
  cell viability: 96.4%
[17]
  cell viability: 88.4%
[18]
  cell viability: 96.1%
[19]
  cell viability: 87.8%
[20]
  cell viability: 68.6%
[21]
  cell viability: 58.9%
[22]
  cell viability: 1.49%
[23]
  cell viability: 73.2%
[24]
  cell viability: 82.4%
[25]
  cell viability: 82.7%
[26]
  cell viability: 87.5%
[27]
  cell viability: 96.2%
[28]
  cell viability: 87.6%
[29]
  cell viability: 88.3%
[30]
  cell viability: 85.9%
[31]
  cell viability: 65.7%
[32]
  cell viability: 26.1%
[33]
  cell viability: 1.75%

From the supplement of paper PMC11451515
